Patent US10137070B2 (Industry-Academic Cooperation Foundation, Yonsei University, priority 2016, dated 2018)

Experiments:
human skin fibroblasts = test: Procollagen type I C-peptide (PIP) secretion of UVB-irradiated human skin fibroblasts (EIA kit); assay type: cell-based; conditions: 100 μM each; UVB 20 mJ/cm^2; 24 hours culture; mean of three wells
Description: Primary dermal fibroblasts (normal, human, neonatal, ATCC No. PCS-201-010) were purchased from ATCC (Manassas, Va., USA). The purchased cells were incubated in a 5% CO2 incubator at 37° C. by using a fibroblast growth medium (Promo Cell, Heidelberg) and used in experiments.
To examine collagen biosynthesis ability, human fibroblasts were distributed into a 12 well-plate at a concentration of 1.0×10^6 cells/well, α-ionone and vitamin C were added thereto at a concentration of 100 μM each, and the resulting human fibroblasts were incubated in a CO2 incubator for 24 hours. After removing the medium from each well, the plate was washed once with PBS, and 1 ml of PBS was added thereto, followed by irradiation with ultraviolet B (UVB) at a dose of 20 mJ/cm^2. The PBS of each well was replaced by a medium and the human fibroblasts were cultured for 24 hours, and then the amount of procollagen secreted into the medium was measured using a procollagen type C-peptide EIA kit (Takara Bio, Japan). A standard solution included in the collagen measurement kit was diluted according to concentration, absorbance was measured at 450 nm to create a standard concentration curve, and the amount of collagen produced was calculated. […]

[1] = Body weights and food intakes of hairless mice fed experimental diets; assay type: in vivo, albino hairless mice (Skh-1); conditions: 0.2% in AIN-93 diet for 10 weeks; UVB-irradiated hairless mice
From the text: (§1) 5-week-old female albino hairless mice (Skh-1) used in the present example were purchased from ORIENTBIO (Gyeonggi-do, Korea) and subjected to an adaptation period of 1 week with solid feed. The experimental animal was divided into 4 groups and 5 mice were assigned to each group. All the experimental groups were divided into a normal control not irradiated with ultraviolet rays (−UVB), a group irradiated with ultraviolet rays (+UVB), and a group irradiated with ultraviolet rays and treated with α-ionone (αIO) or vitamin C (VitC). During a rearing period, the experimental groups were freely fed feed and water, temperature and humidity were maintained at 22±1° C. and 60±5%, a light period and a dark period were adjusted every day to 12 hours.
(§2) The −UVB and +UVB groups were fed a purified diet formulated based on the AIN-93 rodent diet composition (Ree yes, P G et al., J Nutr, 123:1939-1951, 1993) for 10 weeks, the αIO group were fed an AIN-93 purified diet with 0.2% of α-ionone (Sigma-Aldrich) for 10 weeks, and the VitC group was fed a diet, prepared by adding 0.2% of vitamin C (Sigma-Aldrich) to the AIN-93 purified diet, for 10 weeks. The diets were supplied daily with water between 10 am and 11 am, and food intakes were measured daily.
(§3) During the experimental rearing period, dorsal parts of the hairless mice were irradiated with UVB three times a week, and the amount of ultraviolet radiation was 73 mJ/cm^2 for the first one week, 146 mJ/cm^2 for the second week, and 219 mJ/cm^2 for the third week to the tenth week. During rearing, body weights and skin thicknesses of the experimental groups were measured weekly, and images of dorsal skin parts thereof were taken. The skin thicknesses of buttocks of the hairless mice were measured using a digital micro caliper (Marathon Watch Company Ltd, Ontario, Canada).

[2] = system: skin tissues of ultraviolet rays-irradiated hairless mice; test: Skin moisture content, moisture evaporation, elasticity and erythema index of UVB-irradiated hairless mice (Corneometer, Tewameter, Cutometer, Mexameter); assay type: in vivo, albino hairless mice (Skh-1); conditions: 0.2% in diet for 10 weeks; UVB three times a week; last day
From the text: as §1, §2, §3
Skin moisture content, moisture evaporation, elasticity, and the erythema index of each of the experimental animal groups were measured once on the last day of the experiment using Corneometer®, Tewameter®, Cutometer®, and Mexameter® (Courage+Khazaka electronic GmbH), respectively. During the measurement, the value obtained by lightly pressing a certain portion of the experimental animal or the like was recorded.

[3] = system: dorsal skin of ultraviolet rays-irradiated hairless mice; test: Wrinkle formation on dorsal skin of UVB-irradiated hairless mice (images, silicone replica, image analyzer); assay type: in vivo, albino hairless mice (Skh-1); conditions: 0.2% in diet for 10 weeks
From the text: as §1, §2, §3
The skin of each hairless mouse irradiated with ultraviolet rays for 10 weeks was replicated using silicone rubber and a degree of the formation of wrinkles was measured. A disk with a circular hole having a diameter of 1 cm was attached to a dorsal part of the hairless mouse, reagents for preparing a replica were mixed, the mixed resultant was thinly spread on the dorsal art of the hairless mouse and completely dried, and then the disk was carefully detached therefrom, thereby completing the preparation of the replica. The replica was prepared at a temperature of about 20° C. to about 23° C. and a humidity of about 45% to about 50% under constant temperature and constant humidity conditions, a silicon rubber impression material (Epigem, Seoul, Korea) for preparing a replica was used. To analyze the prepared replica, four wrinkle indexes, such as a total wrinkle area, a maximum wrinkle depth, a mean depth, and a mean length were analyzed using a computer image analyzer (Visioline VL650, Courage+Khazaka electronic GmbH, Germany).

[4] = system: skin of UV-irradiated hairless mice; test: Skin thickness of UV-irradiated hairless mice (digital micro caliper); assay type: in vivo, albino hairless mice (Skh-1); conditions: last day, 0.2% in diet for 10 weeks
From the text: as §1
as §2, with “daily. […]” for “daily.”

[5] = system: skin epidermis layer of UV-irradiated hairless mice; test: Skin epidermis layer thickness by H&E staining; assay type: in vivo, albino hairless mice (Skh-1); conditions: 0.2% in diet for 10 weeks; UVB for 10 weeks
From the text: as §1
as §2, with “daily. […]” for “daily.”

[6] = system: collagen fibers in dermis layers of UV-irradiated hairless mice; test: Collagen fibers in dermis layer by Masson's trichrome staining; assay type: in vivo, albino hairless mice (Skh-1); conditions: 0.2% in diet for 10 weeks; UVB for 10 weeks
From the text: as §1
as §2, with “daily. […]” for “daily.”

[7] = system: Collagen type I alpha1 (Col1α1); test: RT-PCR gene expression in dorsal skin tissue: Col1α1; assay type: in vivo, albino hairless mice (Skh-1); conditions: 0.2% in diet for 10 weeks
From the text: as §1
as §2, with “daily. […]” for “daily.”

[8] = system: Collagen type I alpha2 (Col1α2); test: RT-PCR gene expression in dorsal skin tissue: Col1α2; assay type: in vivo, albino hairless mice (Skh-1); conditions: 0.2% in diet for 10 weeks
From the text: as §1
as §2, with “daily. […]” for “daily.”

[9] = system: Collagen type III alpha1 (Col3α1); test: RT-PCR gene expression in dorsal skin tissue: Col3α1; assay type: in vivo, albino hairless mice (Skh-1); conditions: 0.2% in diet for 10 weeks
From the text: as §1
as §2, with “daily. […]” for “daily.”

[10] = system: Matrix metallopeptidase 1a (MMP-1a); test: RT-PCR gene expression in dorsal skin tissue: MMP-1a; assay type: in vivo, albino hairless mice (Skh-1); conditions: 0.2% in diet for 10 weeks
From the text: as §1
as §2, with “daily. […]” for “daily.”

[11] = system: Matrix metallopeptidase 1b (MMP-1b); test: RT-PCR gene expression in dorsal skin tissue: MMP-1b; assay type: in vivo, albino hairless mice (Skh-1); conditions: 0.2% in diet for 10 weeks
From the text: as §1
as §2, with “daily. […]” for “daily.”

[12] = system: Matrix metallopeptidase 3 (MMP-3); test: RT-PCR gene expression in dorsal skin tissue: MMP-3; assay type: in vivo, albino hairless mice (Skh-1); conditions: 0.2% in diet for 10 weeks
From the text: as §1
as §2, with “daily. […]” for “daily.”

[13] = system: Matrix metallopeptidase 9 (MMP-9); test: RT-PCR gene expression in dorsal skin tissue: MMP-9; assay type: in vivo, albino hairless mice (Skh-1); conditions: 0.2% in diet for 10 weeks
From the text: as §1
as §2, with “daily. […]” for “daily.”

[14] = in vivo; cited from earlier work
rats = conditions: 32 rats, orally 10 mg/day for 8 weeks; cited from earlier work
[15] = system: microorganisms harmful to the human body; conditions: Findic et al 2009; cited from earlier work
[16] = replica, computer image analyzer

Compound: O=C1O[C@H]([C@@H](O)CO)C(O)=C1O [vitamin C, reference compound]
- increase in the amount of collagen (procollagen type I C-peptide secreted) compared to control cells irradiated with ultraviolet rays alone (+UVB) (human skin fibroblasts): 37%
- effect on body weights [1]: no significant effect
- effect on food intakes [1]: no significant effect

Compound: CC(=O)/C=C/C1C(C)=CCCC1(C)C (stereo not drawn) [α-ionone, (3E)-4-(2,6,6-trimethylcyclohex-2-en-1-yl)but-3-en-2-one]
- increase in the amount of collagen (procollagen type I C-peptide secreted) compared to control cells irradiated with ultraviolet rays alone (+UVB) (human skin fibroblasts): 37%
- effect on body weights [1]: no significant effect
- effect on food intakes [1]: no significant effect
- decrease in erythema index compared to the +UVB control [2]: 26%
- decrease in moisture evaporation compared to the +UVB control [2]: 46%
- increase in elasticity of skin tissue compared to the +UVB control [2]: 77%
- increase in moisture content of skin tissue compared to the +UVB control [2]: 78%
- degree of formation of wrinkles in silicone rubber replica compared to the +UVB control ([3]; UVB for 10 weeks): significant improvement on the thickness and depth of wrinkles
- skin wrinkles in images of dorsal skin (naked eye) compared to the +UVB control ([3]; UVB for 10 weeks): significant decrease in the thickness and depth of wrinkles
- decrease in maximum wrinkle depth compared to the +UVB control [3, 16]: 49%
- decrease in mean depth of wrinkles compared to the +UVB control [3, 16]: 39%
- decrease in mean length of wrinkles compared to the +UVB control [3, 16]: 68%
- decrease in total wrinkle area compared to the +UVB control [3, 16]: 60%
- decrease in skin thickness compared to the +UVB control [4]: 19%
- thickness of the thickened epidermis layer due to UV irradiation (H&E staining) [5]: significant decrease
- collagen fibers of the dermis layer (Masson's trichrome, aniline blue) compared to the control irradiated alone [6]: relatively more compact and regularly arranged
- expression of collagen type 1α1 compared to the +UVB control [7]: significant increase
- expression of collagen type 1α2 compared to the +UVB control [8]: significant increase
- expression of collagen type 3α1 compared to the +UVB control [9]: significant increase
- expression of MMP-1a gene compared to the +UVB control [10]: significant decrease
- expression of MMP-1b gene compared to the +UVB control [11]: significant decrease
- expression of MMP-3 gene compared to the +UVB control [12]: significant decrease
- expression of MMP-9 gene compared to the +UVB control [13]: significant decrease

Compound: ionone
- LD50 [14]: 2 g/kg body weight
- toxicity after oral administration (rats): no toxicity was shown
- antimicrobial activity [15]: strong antimicrobial activity
